Test results as given in publication PMC9221546, “New Phenylglycinamide Derivatives with Hybrid Structure as Candidates for New Broad-Spectrum Anticonvulsants” (Cells, 2022).
Like-named read-outs stand apart in the source and are kept apart here.

Legend:
[1] = test system: 6 Hz (32 mA) seizures in mice; experiment: 6 Hz (32 mA) psychomotor seizure model; assay type: in vivo; settings: Mus musculus, ip; for responders at 100 mg/kg: 100 mg/kg i.p., 0.5 h; for ED50: mice, pretreatment time 0.5 h, (95% confidence limits)
How it was run: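 Adult male Albino Swiss mice (22–26 g), compounds suspended in 1% aqueous Tween 80, single i.p. injection, tested 0.5 h post-dose. Screening at 100 mg/kg with four mice per group; ED50 from 3–4 groups of eight. PI = TD50 (chimney test) / ED50.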

[2] = test system: scPTZ-induced seizures in mice; experiment: Subcutaneous pentylenetetrazole (scPTZ) seizure test; assay type: in vivo; settings: 100 mg/kg i.p., 0.5 h; for protection in scPTZ screening: four mice
How it was run: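 Adult male Albino Swiss mice (22-26 g) received compounds suspended in 1% aqueous Tween 80, single i.p. injection at 10 mL/kg. ED50 from 3–4 dose groups of eight mice; protective index computed as TD50 (chimney or rotarod) divided by ED50.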

[3] = test system: ivPTZ seizure threshold in mice; experiment: Timed ivPTZ seizure threshold test; assay type: in vivo; settings: 50 mg/kg i.p., 0.5 h before test; for increase of threshold for generalized clonus with loss of righting reflex / increase of threshold for the first myoclonic twitch: vs control
Protocol: In studies assessing the acute effect of compounds 53 and 60 on the ivPTZ seizure threshold and neuromuscular strength, compounds 53 and 60 was suspended in a 1% solution of Tween 80 and administered i.p., at a dose of 10 mL/kg body weight. Each experimental group consisted of 9–12 animals (ivPTZ seizure threshold test) or 9−10 animals (grip strength test). The timed ivPTZ test was employed to evaluate the acute effect of compounds 53 and 60 on the seizure thresholds for (1) the first myoclonic twitch, (2) generalized clonic seizure with loss of righting reflex, and (3) forelimb tonus. The experimental procedure of the timed ivPTZ test was described in detail elsewhere. The acute effect of compounds 53 and 60 on neuromuscular strength was quantified using the grip-strength apparatus (BIOSEB, Chaville, France) according to the method that is described elsewhere. The results are depicted in Figure 2 (ivPTZ seizure threshold test, see Section 3 Results and Discussion) and Figure 3 (grip strength test, see Section 3 Results and Discussion).
The timed ivPTZ test was employed to further evaluate the effects of compounds 53 and 60 on seizure susceptibility in mice. The ivPTZ seizure test is an extremely sensitive method for assessing seizure thresholds in rodents. In this method, the threshold PTZ dose for several seizure endpoints was determined.
Figure 2 Acute effects of 53 and 60 on the threshold for the first myoclonic twitch (A), generalized clonus (B), and forelimb tonus (C) in the ivPTZ seizure threshold test in mice. Compounds 53 and 60 were administered i.p. 0.5 h before the seizure test. Control animals received vehicle only. Each experimental group consisted of 9–12 animals. Each bar represents the mean (mg/kg PTZ) + SEM. ** p < 0.01, *** p < 0.001, **** p < 0.0001 vs. the control group (Student’s t-test).

[4] = molecular target: T1, Calcium Cav1.2 channels (dihydropyridine site) (Homo sapiens, UniProt Q13936); experiment: Calcium Cav1.2 channel binding (dihydropyridine site, antagonist radioligand); settings: 10 µM; human recombinant HEK-293 cell; read-out: % Inhibition of Control Specific Binding, Cav1.2 (dihydropyridine site)
T1 construct: host or cells: HEK-293
Protocol: Binding/functional studies were carried out commercially in Eurofins Laboratories (Poitiers, France) and Eurofins Panlabs Discovery Services Taiwan, Ltd. (New Taipei City, Taiwan) using testing procedures that were reported previously (for details see Table S2).

[5] = molecular target: T2, TRPV1 (VR1) (h) (Homo sapiens, UniProt Q8NER1); experiment: TRPV1 (VR1) (h) antagonist effect functional assay; assay type: cell-based; settings: human recombinant CHO cells, read-out: % Inhibition of control agonist response, TRPV1 (antagonist effect)
T2 construct: host or cells: CHO
How it was run: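 Commercial Eurofins radioligand binding and functional panel: [3H]GABA agonist binding for GABAA, antagonist radioligand binding for GABA transporter, cell-based calcium flux antagonist assay for human Cav1.2. TRPV1 antagonism measured in human recombinant CHO cells at 100 µM as % inhibition of control agonist response.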

[6] = test system: hepatoma HepG2 cell line; experiment: Hepatotoxicity, HepG2 viability (MTS); assay type: cell-based; settings: 72 h treatment
Protocol: Figure 7 The effect of 53, 60, and 62, cytostatic drug doxorubicin (DX) and the mitochondrial toxin CCCP on the hepatoma HepG2 cell line viability after 72 h of incubation at 37 °C, 5% CO2. The data were analyzed with one-way ANOVA, followed by Bonferroni’s Comparison Test (Graph Pad Prism 8.0.1 software, San Diego, CA, USA)): ** p < 0.01, **** p < 0.0001 vs. negative control (DMSO 1% in growth media).

[7] = four mice, read-out: protection in 6 Hz (32 mA) screening
[8] = read-out: 6 Hz (32 mA) screening: number of mice protected/number of mice tested (converted)

T1 sequence (Q13936 whole entry): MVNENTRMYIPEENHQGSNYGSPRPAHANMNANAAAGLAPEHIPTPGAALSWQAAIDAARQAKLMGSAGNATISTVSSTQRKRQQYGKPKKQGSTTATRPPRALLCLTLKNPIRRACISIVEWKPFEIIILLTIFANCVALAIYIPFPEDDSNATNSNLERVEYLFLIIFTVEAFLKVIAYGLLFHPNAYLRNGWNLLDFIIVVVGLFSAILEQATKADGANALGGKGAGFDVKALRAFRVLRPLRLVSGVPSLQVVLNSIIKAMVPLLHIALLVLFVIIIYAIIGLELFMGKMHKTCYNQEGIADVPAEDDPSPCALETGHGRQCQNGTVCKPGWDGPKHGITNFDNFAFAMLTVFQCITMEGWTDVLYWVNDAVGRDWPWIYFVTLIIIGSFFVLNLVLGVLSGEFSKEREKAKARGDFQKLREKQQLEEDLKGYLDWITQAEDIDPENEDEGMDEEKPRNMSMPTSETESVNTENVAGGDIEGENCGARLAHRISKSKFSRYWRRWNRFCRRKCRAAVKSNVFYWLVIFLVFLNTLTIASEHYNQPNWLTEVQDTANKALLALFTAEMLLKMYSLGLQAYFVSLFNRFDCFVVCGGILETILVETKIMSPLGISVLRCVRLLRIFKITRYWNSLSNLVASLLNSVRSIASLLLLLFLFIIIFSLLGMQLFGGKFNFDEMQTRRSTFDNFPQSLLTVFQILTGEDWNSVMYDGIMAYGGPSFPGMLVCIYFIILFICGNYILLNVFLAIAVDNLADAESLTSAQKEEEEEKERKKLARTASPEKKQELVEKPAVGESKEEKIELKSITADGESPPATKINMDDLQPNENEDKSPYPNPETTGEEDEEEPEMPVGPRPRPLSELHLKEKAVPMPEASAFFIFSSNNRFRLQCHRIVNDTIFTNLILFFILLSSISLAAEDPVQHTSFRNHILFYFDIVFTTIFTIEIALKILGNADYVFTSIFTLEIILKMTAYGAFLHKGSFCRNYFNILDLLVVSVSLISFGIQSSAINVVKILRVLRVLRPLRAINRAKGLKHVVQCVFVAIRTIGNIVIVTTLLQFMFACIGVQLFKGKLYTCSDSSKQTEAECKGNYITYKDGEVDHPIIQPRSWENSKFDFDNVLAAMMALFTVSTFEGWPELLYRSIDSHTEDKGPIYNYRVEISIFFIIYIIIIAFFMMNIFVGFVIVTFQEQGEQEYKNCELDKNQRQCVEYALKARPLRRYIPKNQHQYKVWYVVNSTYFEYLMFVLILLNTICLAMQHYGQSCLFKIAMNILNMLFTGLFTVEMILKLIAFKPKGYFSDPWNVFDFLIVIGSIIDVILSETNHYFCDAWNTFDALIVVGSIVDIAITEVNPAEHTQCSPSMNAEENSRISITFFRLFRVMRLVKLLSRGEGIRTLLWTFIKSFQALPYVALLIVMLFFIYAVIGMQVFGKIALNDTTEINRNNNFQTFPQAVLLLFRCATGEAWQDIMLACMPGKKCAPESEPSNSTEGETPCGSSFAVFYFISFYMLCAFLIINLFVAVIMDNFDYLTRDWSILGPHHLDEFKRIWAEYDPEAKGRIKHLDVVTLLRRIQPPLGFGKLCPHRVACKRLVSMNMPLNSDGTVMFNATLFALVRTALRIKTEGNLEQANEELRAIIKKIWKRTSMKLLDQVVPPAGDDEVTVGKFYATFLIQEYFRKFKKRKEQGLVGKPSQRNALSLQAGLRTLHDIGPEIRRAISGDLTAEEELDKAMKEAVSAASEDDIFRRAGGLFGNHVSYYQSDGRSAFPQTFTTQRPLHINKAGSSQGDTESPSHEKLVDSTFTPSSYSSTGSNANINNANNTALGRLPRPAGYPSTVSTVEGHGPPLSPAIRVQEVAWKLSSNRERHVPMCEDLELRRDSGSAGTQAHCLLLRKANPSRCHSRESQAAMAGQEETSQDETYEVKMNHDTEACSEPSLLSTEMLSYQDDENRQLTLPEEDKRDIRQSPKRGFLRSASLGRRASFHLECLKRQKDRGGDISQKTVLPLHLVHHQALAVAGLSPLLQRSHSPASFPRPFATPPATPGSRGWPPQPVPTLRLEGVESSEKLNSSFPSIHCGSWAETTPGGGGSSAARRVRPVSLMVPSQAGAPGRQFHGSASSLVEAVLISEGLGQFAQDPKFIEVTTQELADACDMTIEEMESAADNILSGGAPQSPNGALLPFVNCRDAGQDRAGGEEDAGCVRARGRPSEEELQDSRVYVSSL
T1 sequence (Q08289 whole entry partner): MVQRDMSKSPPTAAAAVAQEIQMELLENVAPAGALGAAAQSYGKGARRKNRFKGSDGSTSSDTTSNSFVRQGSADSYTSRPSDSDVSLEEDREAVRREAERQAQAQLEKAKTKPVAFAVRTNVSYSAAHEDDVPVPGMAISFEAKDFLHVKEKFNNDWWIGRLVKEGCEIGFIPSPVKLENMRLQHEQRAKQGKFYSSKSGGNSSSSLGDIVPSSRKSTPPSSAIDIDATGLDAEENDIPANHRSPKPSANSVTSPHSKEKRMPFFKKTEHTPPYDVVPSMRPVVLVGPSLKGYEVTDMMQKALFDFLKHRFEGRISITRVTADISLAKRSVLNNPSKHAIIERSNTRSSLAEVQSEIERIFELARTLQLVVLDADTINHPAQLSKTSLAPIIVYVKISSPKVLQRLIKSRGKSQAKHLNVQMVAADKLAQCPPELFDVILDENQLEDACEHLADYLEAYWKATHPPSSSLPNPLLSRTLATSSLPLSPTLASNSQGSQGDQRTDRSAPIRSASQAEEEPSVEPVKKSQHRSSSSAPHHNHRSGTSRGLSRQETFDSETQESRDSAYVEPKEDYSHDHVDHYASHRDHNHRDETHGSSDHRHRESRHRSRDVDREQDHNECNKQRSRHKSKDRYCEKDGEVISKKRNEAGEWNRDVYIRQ
T1 sequence (P54289 25-956 partner limits assumed): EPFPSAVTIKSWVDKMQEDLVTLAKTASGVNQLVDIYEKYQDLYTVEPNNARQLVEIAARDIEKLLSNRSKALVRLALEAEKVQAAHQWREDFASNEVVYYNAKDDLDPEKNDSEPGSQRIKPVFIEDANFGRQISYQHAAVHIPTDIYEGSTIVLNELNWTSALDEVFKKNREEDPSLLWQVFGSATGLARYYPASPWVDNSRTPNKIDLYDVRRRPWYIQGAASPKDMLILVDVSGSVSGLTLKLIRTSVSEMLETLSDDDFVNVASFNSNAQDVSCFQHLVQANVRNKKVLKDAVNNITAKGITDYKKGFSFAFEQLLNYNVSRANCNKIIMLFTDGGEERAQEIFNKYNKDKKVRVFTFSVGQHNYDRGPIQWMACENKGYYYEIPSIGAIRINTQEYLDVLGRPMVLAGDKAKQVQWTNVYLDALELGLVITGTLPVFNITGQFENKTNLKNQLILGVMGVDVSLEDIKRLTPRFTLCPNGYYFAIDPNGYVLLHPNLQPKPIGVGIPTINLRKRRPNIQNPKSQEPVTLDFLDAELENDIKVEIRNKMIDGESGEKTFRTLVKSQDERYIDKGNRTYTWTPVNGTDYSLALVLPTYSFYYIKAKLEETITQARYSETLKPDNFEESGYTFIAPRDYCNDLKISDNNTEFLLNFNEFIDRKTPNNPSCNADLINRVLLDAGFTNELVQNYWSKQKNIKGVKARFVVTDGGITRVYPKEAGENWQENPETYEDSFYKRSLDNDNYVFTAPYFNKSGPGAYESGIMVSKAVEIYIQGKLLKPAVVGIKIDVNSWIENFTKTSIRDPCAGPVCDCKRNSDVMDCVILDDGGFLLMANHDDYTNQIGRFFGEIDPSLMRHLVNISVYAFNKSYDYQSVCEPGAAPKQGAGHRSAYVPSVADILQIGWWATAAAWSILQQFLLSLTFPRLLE
T1 sequence (P54289 957-1103 partner limits assumed): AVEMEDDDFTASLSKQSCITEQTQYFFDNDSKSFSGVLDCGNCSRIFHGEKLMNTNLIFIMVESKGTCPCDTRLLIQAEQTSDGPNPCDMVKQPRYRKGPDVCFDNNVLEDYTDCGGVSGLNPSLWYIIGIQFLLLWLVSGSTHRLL
T2 sequence (Q8NER1 whole entry): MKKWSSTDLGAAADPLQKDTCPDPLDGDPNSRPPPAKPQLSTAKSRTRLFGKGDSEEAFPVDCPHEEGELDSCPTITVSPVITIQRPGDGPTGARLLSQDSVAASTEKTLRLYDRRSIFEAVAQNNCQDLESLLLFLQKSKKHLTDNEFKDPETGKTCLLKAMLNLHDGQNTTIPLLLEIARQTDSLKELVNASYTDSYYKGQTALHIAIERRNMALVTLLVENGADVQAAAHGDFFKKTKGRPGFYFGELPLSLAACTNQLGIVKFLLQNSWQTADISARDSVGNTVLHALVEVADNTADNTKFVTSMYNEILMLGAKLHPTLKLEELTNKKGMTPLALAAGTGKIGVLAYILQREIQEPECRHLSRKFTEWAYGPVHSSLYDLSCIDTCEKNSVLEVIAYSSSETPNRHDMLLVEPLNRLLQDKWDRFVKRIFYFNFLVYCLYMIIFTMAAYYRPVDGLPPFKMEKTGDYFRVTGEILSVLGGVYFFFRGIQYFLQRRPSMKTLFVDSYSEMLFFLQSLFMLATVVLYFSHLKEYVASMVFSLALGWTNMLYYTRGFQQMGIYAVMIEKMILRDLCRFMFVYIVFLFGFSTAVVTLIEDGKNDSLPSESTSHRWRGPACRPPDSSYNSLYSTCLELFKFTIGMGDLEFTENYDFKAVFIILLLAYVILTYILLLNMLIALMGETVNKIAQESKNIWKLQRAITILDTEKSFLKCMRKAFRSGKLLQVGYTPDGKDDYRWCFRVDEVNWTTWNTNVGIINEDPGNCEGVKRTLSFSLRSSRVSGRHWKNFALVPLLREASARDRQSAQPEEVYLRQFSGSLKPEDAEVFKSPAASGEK

Row | SMILES | responders at 100 mg/kg [1, 7] [%] | responders at 100 mg/kg [1, 8] [%] | ED50 [1] [mg/kg] | scPTZ screening: number of mice protected/number of mice tested [2] | protection in scPTZ screening [2] [%] | effect on threshold for forelimb tonus [3] | increase of threshold for generalized clonus with loss of righting reflex [3] | increase of threshold for the first myoclonic twitch [3] | inhibition at 10 µM [4] [%] | inhibition at 100 µM [5] [%] | effect on HepG2 cell viability (hepatotoxicity) [6]
1 | CC(=O)NC(C(=O)N1CCN(c2cccc(C(F)(F)F)c2)CC1)c1ccccc1 (stereo not shown) [Compound 53, N-(2-oxo-1-phenyl-2-(4-(3-(trifluoromethyl)phenyl)piperazin-1-yl)ethyl)acetamide] | 100 | 100 | 29.9 | 1/4 | 25 | did not, however, produce any significant effect | ~ 40% | ~ 50% | 4 | 128 | observed only at 100 µM
2 | CC(=O)NC(C(=O)N1CCN(c2cccc(OC(F)(F)F)c2)CC1)c1ccccc1 (stereo not shown) [Compound 60, N-(2-oxo-1-phenyl-2-(4-(3-(trifluoromethoxy)phenyl)piperazin-1-yl)ethyl)acetamide] | 100 | 100 | 24.6 | 1/4 | 25 | devoid of any significant effects | devoid of any significant effects | ~ 20% | 7 | 110 | observed only at 100 µM
